From patent US11820762B2, “Compounds as potential therapeutic agents targeting various neurodegenerative diseases” (The Hong Kong University of Science and Technology, priority 2020, dated 2023)

Key:
[1] = system: DNA (G4C2)4 (SEQ ID NO: 5) G4; assay: 1D 1H-NMR titration of DNA (G4C2)4 G4; assay type: binding; conditions: for binding affinity order according to NMR titration: DNA (G4C2)4 G-quadruplex and hnRNP H, FIGS. 3C-3E; for binding to DNA (G4C2)4 G4 by NMR titration: G4:compound ratio 1:1 to 1:10
Method: Single […] were purchased from Integrated DNA Technologies (IDT) and Takara. Single-strand DNA/RNA sample at 100 μM was then annealed by heating up to 95° C. for 15 mins, and slowly cooled to room temperature in the annealing buffer (70 mM KCl, 20 mM potassium phosphate (pH 7.0)) for overnight. The final NMR samples contained 0.1 mM DNA or RNA in 70 mM KCl and 20 mM potassium phosphate buffer (pH 7.0).
The 1D ^1H-NMR spectra were performed at 25° C. All compounds were dissolved in isotope-labeled d6-DMSO (Sigma-Aldrich) at about 50 mM concentration, working as stock solutions. To avoid chemical shift changes of DNA/RNA G4 resulted from d6-DMSO addition, […] d6-DMSO was added into 500 μL of 0.1 mM DNA/RNA G4 solution in the NMR buffer (20 mM potassium phosphate buffer and 70 mM KCl, pH 7.0, 10% D2O) and then 1D ^1H-NMR spectrum was recorded as a reference. During NMR titration experiments of adding each compound into the DNA/RNA G4 solution, the maximal volume of 10 μL of each compound in d6-DMSO solution was regarded as a final data point.
We next confirmed the binding of cA and DNA (G4C2)4 (SEQ ID NO: 5) G4 by NMR titration experiments.

[2] = biological target: T1, RRM domain of hnRNP H (Homo sapiens, UniProt P31943); assay: 1H-15N HSQC NMR titration of hnRNP H RRM domain; assay type: binding; conditions: ratios 1:5 and 1:10
T1 construct: HSQC spectra of RRM1/2 of hnRNP H; hexahistidine (cleaved yes); made in house; host or cells: Escherichia coli BL21(DE3), pET-28a(+)
T1 sequence (P31943 1-194 limits assumed): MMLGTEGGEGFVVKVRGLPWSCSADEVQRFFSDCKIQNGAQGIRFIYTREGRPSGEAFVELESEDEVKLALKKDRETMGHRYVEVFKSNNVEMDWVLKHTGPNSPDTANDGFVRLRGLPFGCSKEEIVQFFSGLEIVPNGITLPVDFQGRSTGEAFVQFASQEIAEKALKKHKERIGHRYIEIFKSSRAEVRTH
Method: The coding sequence of the RRM domain of hnRNP H/F, or human Orc6 was inserted into the expression vector pET-28a(+) (Novagen). Protein was expressed in Escherichia coli BL21(DE3) at 37° C. for 5 hours. Cell lysates were subject to affinity purification with nickel-nitrilotriacetic acid resin (Qiagen) followed by cleavage of hexahistidine tag with Protease 3C enzyme. Products were further purified on a Superdex 75 column (GE Healthcare). For NMR studies, uniformly ^15N labeled protein was expressed and purified as described above, except for cells grown in M9 medium containing 100% ^15N enriched ammonium chloride (Cambridge Isotopes) and d-glucose.
Titration experiments were performed by recording a series of 2D ^15N-HSQC spectra on uniformly ^15N-labeled RRM domain (˜0.1 mM) in the presence of different amounts of DNA/RNA or compounds at 25° C. Protein samples and stock solutions of DNA/RNA were all prepared in 20 mM potassium phosphate buffer and 70 mM KCl, pH 7.0, 10% D2O. All compounds were dissolved in isotope-labeled d6-DMSO (Sigma-Aldrich) at about 50 mM concentration, working as stock solutions. To avoid chemical shift changes of protein samples resulted from d6-DMSO addition, 10 μL d6-DMSO was added into 500 μL of 0.1 mM protein solution in the NMR buffer (20 mM potassium phosphate buffer and 70 mM KCl, pH 7.0, 10% D2O) and then the 2D HSQC was recorded as a reference.
In this scenario, specific RNA-binding proteins (RBPs), like hnRNP H, are recruited by the RNA foci, resulting in RNA processing impairment and further cytotoxicity to the central nervous system^30,36,37. Therefore, we tested the binding possibility of cA with the RRM domain of hnRNP H by NMR titration. […] Intriguingly, the DNA (G4C2)4 (SEQ ID NO: 5) G4 was also shown a potent binding affinity to the RRM domain of hnRNP H (FIG. 4C).

[3] = system: GMR-GAL4-(G4C2)29 Drosophila; assay: Drosophila feeding and external eye assay; assay type: in vivo; conditions: 100 μM in solid food during larval stage; day 7 after eclosion
Method: A fly line expressing 29 GGGGCC repeats (29R) (SEQ ID NO: 6), under the GMR-GAL4 promoter (GMR-GAL4-(G4C2)29 (SEQ ID NO: 6)), was used. Both GMR-GAL4-(G4C2)29 (SEQ ID NO: 6) and WT flies were raised at room temperature (25° C.) on a cornmeal medium supplemented with dry yeast. […] Parent flies for cross were set in solid food containing testing compound, and F1 larvae were thus fed with food continuously until eclosion. After eclosion, F1 flies were transferred to normal food containers without compounds.
Eye images of GMR-GAL4-(G4C2)29 (SEQ ID NO: 6) or WT adult flies at day 7 after eclosion were captured using a CCD camera on an Olympus stereomicroscope. Eye morphologies of flies in different treatment groups were compared to evaluate the retina degeneration level. The affected eye area and total eye area were measured to calculate the degeneration ratio by ImageJ.
We next treated WT Drosophila and Drosophila with GMR-GAL4 driver promoted expression of (G4C2)29-repeats (SEQ ID NO: 6) (GMR-GAL4-(G4C2)29) (SEQ ID NO: 6) with cA or cC by feeding larvae with compounds in solid food. DMSO was used as a negative control. The eyes of day 7 adult Drosophila with GMR-GAL4-(G4C2)29 (SEQ ID NO: 6) were much rougher than the same age WT fly, indicating eye degeneration (FIG. 8E). The affected eye degeneration area accounted for over 50% of the whole eye (FIG. 8F).

## CC(=O)Cc1cc2c(c(O)c1C(=O)O)-c1c(c(O)c3oc4c(O[C@@H]5OC(C(=O)O)=C[C@H](O)[C@H]5O)cccc4c(=O)c3c1O)CC2 [cA, chrexanthomycin A]
[1]
  binding affinity order according to NMR titration: cC>cA>cB>cF
  binding to DNA (G4C2)4 G4 by NMR titration: apparent chemical shift changes
[2]
  binding to RRM domain of hnRNP H by NMR titration: bound to the RRM domain of hnRNP H
[3]
  eye degeneration phenotype: significantly rescuing the eye degeneration phenotype

## COc1c2c(c(O)c3c(=O)c4cccc(O[C@@H]5OC(C(=O)O)=C[C@H](O)[C@H]5O)c4oc13)-c1c(cc(CC(C)=O)c(C(=O)O)c1O)CC2 [cB, chrexanthomycin B]
[1]
  binding affinity order according to NMR titration: cC>cA>cB>cF
  binding to DNA (G4C2)4 G4 by NMR titration: proved to bind
[2]
  binding to RRM domain of hnRNP H by NMR titration: much weaker bindings

## CC(=O)Cc1cc2c(c(O)c1C(=O)O)-c1c(c(O)c3oc4c(O[C@@H]5O[C@H](C(=O)O)[C@@H](O)[C@H](O)[C@H]5O)cccc4c(=O)c3c1O)CC2 [cC, chrexanthomycin C]
[1]
  binding affinity order according to NMR titration: cC>cA>cB>cF
  binding to DNA (G4C2)4 G4 by NMR titration: proved to bind
[2]
  binding to RRM domain of hnRNP H by NMR titration: a little bit stronger than cA
[3]
  eye degeneration phenotype: significantly rescuing the eye degeneration phenotype
